# Experimental data as given in patent US8895585B2, “Nicotinamide derivative or salt thereof” (FUJIFILM Corporation, priority 2010, dated 2014).
# Assays:
# female Lewis rats = test: Rat type-II-collagen-induced arthritis; assay type: in vivo; settings: oral administration at 10 mg/kg/day, once daily Day 7 to Day 20, hindlimb volume by plethysmometer, read-out: inhibition of hindlimb swelling compared with the control group
# Procedure: The compounds were tested to examine effects upon rat type II collagen arthritis. To 3 mg/mL bovine type II collagen solution (Collagen Gijutsu Kenshu-Kai) dissolved in 0.05 mol/L acetic acid, an equal amount of Freund's incomplete adjuvant (Wako Pure Chemical Industries, Ltd.) was added to prepare an emulsion. A portion of the emulsion (0.5 ml) was intradermally injected into the tail bases of 7- or 8-week-old female Lewis rats (Charles River Laboratories Japan, Inc.) (Day 0). Each rat was subjected to the same treatment on Day 7 after the initial inoculation so as to induce arthritis. Each test compound was orally administered from Day 7 to Day 20 once daily. At a given time during the period from Day 7 to Day 21, the rat hindlimb volume was determined using a plethysmometer (UGO BASILE), and the result was designated as an arthritis index. The following compound group inhibited hindlimb swelling by 85% or greater compared with the control group in the case of oral administration at 10 mg/kg/day: the compounds of Example 4-17, Example 6-49, Example 6-117, Example 6-157, Example 6-249, Example 6-322, Example 6-375, and Example 6-395.
# [1] = biological target: T1, glutathione S-transferase (GST)-fused full-length human Syk protein (Homo sapiens, UniProt P43405); test: Syk enzyme assay; assay type: biochemical; settings: Syk enzyme assay, Test Example 1; read-out: IC50 of Syk-inhibitory activity
# T1 construct: (GST)-fused full-length human Syk protein; GST (glutathione S-transferase); purchased Carna Biosciences
# Summary of the method: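 Baculovirus-expressed enzyme (1.2 ng) was preincubated with compound in HEPES pH 7.0/MgCl2/DTT buffer, 2 min shaking then 13 min at room temperature. Biotin-EDPDYEWPSA-NH2 (0.4 μM final) and ATP (27 μM final) were added for 40 min at room temperature. EDTA stop, streptavidin-XL/PT66-K TR-FRET at 615/665 nm gave IC50.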
# THP-1 cells [2] = test: TNFα generation assay; assay type: cell-based, human; settings: Homo sapiens, THP-1, THP-1 cells; Table 22; read-out: IC50 in TNFα generation assay
# Summary of the method: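 Secreted TNFα in supernatant quantified by ELISA or AlphaLISA after 7 h culture on human IgG-coated wells (10 μg/ml coating). Cells were IFN-γ-differentiated THP-1 (10 ng/ml, 2 days), exposed to compound for 30 min at room temperature before plating.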
# THP-1 cells [3] = test: Antibody-dependent phagocytosis assay; assay type: cell-based; settings: Homo sapiens; THP-1 cells induced to differentiate with IFNγ; opsonized Escherichia coli; Table 23; read-out: IC50 upon phagocytosis inhibition
# Procedure: THP-1 cells (2×10^5 cells/ml) which are human monocyte-like cell line were cultured in the presence of 10 ng/ml IFNγ for 2 days, so that the cells were induced to differentiate into macrophage-like cells. THP-1 cells that had been induced to differentiate were collected. The cells (5×10^4 cells/well) were reacted with test compounds having given concentrations at room temperature for 30 minutes. Thereafter, Escherichia coli (Life Technologies) labeled with a pH-sensitive dye (pHrodo) was subjected to opsonization using an anti-Escherichia coli antibody (Molecular Probes). Then, the resultant was added to THP-1 cells mixed with test compounds that had been induced to differentiate, followed by incubation at 37° C. for 3 hours. At the time of addition of opsonized Escherichia coli, cell-permeable fluorescent dye (Calcein AM) were simultaneously added thereto, and phagocytosis of opsonized Escherichia coli in viable cells was quantitatively determined using an IN Cell Analyzer.
# In addition, the following are used in Table 23 to denote standards for evaluating IC50 upon phagocytosis inhibition. • A: Up to 1 μM • B: 1 to 3 μM • C: 3 to 6 μM
SMILES,IC50 [1] [nM],IC50 (THP-1 cells [2]) [nM],IC50 (THP-1 cells [3]) [nM],inhibition in vivo at 10 mg/kg/day (female Lewis rats) [%]
"CC(C)C[C@H](CN)Nc1nc(Nc2ccc3ncccc3c2)c(C(N)=O)cc1F [Example 6-117, (R)-6-((1-amino-4-methylpentan-2-yl)amino)-5-fluoro-2-((quinolin-6-yl)amino)nicotinamide]",,,,≥ 85
"CCC[C@@H](Nc1nc(Nc2ccnc(OC)c2)c(C(N)=O)cc1F)[C@H](C)N [Example 6-249, 6-(((2S,3R)-2-aminohexane-3-yl)amino)-5-fluoro-2-((2-methoxypyridin-4-yl)amino)nicotinamide]",,,,≥ 85
"CC[C@@H](Nc1nc(Nc2cncc(-c3cccc(OC)c3F)c2)c(C(N)=O)cc1F)[C@H](C)N [Example 006-278, 6-(((2S,3R)-2-aminopentan-3-yl)amino)-5-fluoro-2-((5-(2-fluoro-3-methoxyphenyl)pyridin-3-yl)amino)nicotinamide]",< 10,< 65,1000 to 3000,
"CCCOc1cc(Nc2nc(N[C@H](CCC)[C@H](C)N)c(F)cc2C(N)=O)ccn1 [Example 006-311, 6-(((2S,3R)-2-aminohexan-3-yl)amino)-5-fluoro-2-((2-propoxypyridin-4-yl)amino)nicotinamide]",< 10,65 to 130,1000 to 3000,
"CCn1ncc2cc(Nc3nc(N[C@@H](CN)CC(C)C)c(F)cc3C(N)=O)ccc21 [Example 6-322, (R)-6-((1-amino-4-methylpentan-2-yl)amino)-2-((1-ethyl-1H-indazol-5-yl)amino)-5-fluoronicotinamide]",,,,≥ 85
"C[C@H](N)[C@H](Nc1nc(Nc2ccc3ncccc3c2)c(C(N)=O)cc1F)C1CC1 [Example 006-368, 6-(((1R,2S)-2-amino-1-cyclopropylpropyl)amino)-5-fluoro-2-((quinolin-6-yl)amino)nicotinamide]",< 10,< 65,< 1000,
"Cc1ncc(Nc2nc(N[C@@H]3CCCC[C@@H]3N)c(F)cc2C(N)=O)cc1-n1nccn1 [Example 6-375, 6-(((1R,2S)-2-aminocyclohexyl)amino)-5-fluoro-2-((6-methyl-5-(2H-1,2,3-triazol-2-yl)pyridin-3-yl)amino)nicotinamide]",,,,≥ 85
"COc1ncc(Nc2nc(N[C@@H]3CCCC[C@@H]3N)c(F)cc2C(N)=O)cc1-n1nccn1 [Example 006-377, 6-(((1R,2S)-2-aminocyclohexyl)amino)-5-fluoro-2-((6-methoxy-5-(2H-1,2,3-triazol-2-yl)pyridin-3-yl)amino)nicotinamide]",< 10,< 65,1000 to 3000,
"CCn1ncc2cc(Nc3nc(N[C@H](CC(C)C)[C@H](C)N)c(F)cc3C(N)=O)ccc21 [Example 006-384, 6-(((2S,3R)-2-amino-5-methylhexan-3-yl)amino)-2-((1-ethyl-1H-indazol-5-yl)amino)-5-fluoronicotinamide]",< 10,< 65,< 1000,
"NC(=O)c1cc(F)c(N[C@@H]2CCCC[C@@H]2N)nc1Nc1cnc(N2CCOCC2)c(F)c1 [Example 6-395, 6-(((1R,2S)-2-aminocyclohexyl)amino)-5-fluoro-2-((5-fluoro-6-morpholinopyridin-3-yl)amino)nicotinamide]",,,,≥ 85
NC(=O)c1cc(F)c(NC2CCCCC2N)nc1Nc1ccc2ncccc2c1 (centres unmarked) [Example 008-006],< 10,< 65,< 1000,
CCC(N)CNc1nc(Nc2ccc3ncccc3c2)c(C(N)=O)cc1F (centres unmarked) [Example 014-001],< 10,< 65,1000 to 3000,

# Now from value to molecule, other results behind:
IC50 [1] [nM],IC50 (THP-1 cells [2]) [nM],IC50 (THP-1 cells [3]) [nM],SMILES,inhibition in vivo at 10 mg/kg/day (female Lewis rats) [%]
< 10,< 65,1000 to 3000,"CC[C@@H](Nc1nc(Nc2cncc(-c3ccccc3)c2)c(C(N)=O)cc1F)[C@H](C)N [Example 006-270, 6-(((2S,3R)-2-aminopentan-3-yl)amino)-5-fluoro-2-((5-phenylpyridin-3-yl)amino)nicotinamide]",
10 to 50,65 to 130,1000 to 3000,"CCC[C@@H](Nc1nc(Nc2cncc(F)c2)c(C(N)=O)cc1F)[C@H](C)N [Example 006-301, 6-(((2S,3R)-2-aminohexan-3-yl)amino)-5-fluoro-2-((5-fluoropyridin-3-yl)amino)nicotinamide]",
< 10,< 65,< 1000,"CCn1ncc2cc(Nc3nc(N[C@@H](CN)CC(C)C)c(F)cc3C(N)=O)ccc21 [Example 006-322, (R)-6-((1-amino-4-methylpentan-2-yl)amino)-2-((1-ethyl-1H-indazol-5-yl)amino)-5-fluoronicotinamide]",
< 10,< 65,1000 to 3000,"CCn1ncc2cc(Nc3nc(N[C@H](CC4CC4)[C@H](C)N)c(F)cc3C(N)=O)ccc21 [Example 006-342, 6-(((2R,3S)-3-amino-1-cyclopropylbutan-2-yl)amino)-2-((1-ethyl-1H-indazol-5-yl)amino)-5-fluoronicotinamide]",
< 10,65 to 130,1000 to 3000,"Cc1ncc(Nc2nc(N[C@@H]3CCCC[C@@H]3N)c(F)cc2C(N)=O)cc1-n1nccn1 [Example 006-375, 6-(((1R,2S)-2-aminocyclohexyl)amino)-5-fluoro-2-((6-methyl-5-(2H-1,2,3-triazol-2-yl)pyridin-3-yl)amino)nicotinamide]",
< 10,< 65,1000 to 3000,"Cc1ncc(Nc2nc(N[C@@H]3CCCC[C@@H]3N)c(F)cc2C(N)=O)cc1-c1ccco1 [Example 006-376, 6-(((1R,2S)-2-aminocyclohexyl)amino)-5-fluoro-2-((5-(furan-2-yl)-6-methylpyridin-3-yl)amino)nicotinamide]",
< 10,< 65,1000 to 3000,"CC(C)C[C@@H](Nc1nc(Nc2ccc3c(cnn3C)c2)c(C(N)=O)cc1F)[C@H](C)N [Example 006-383, 6-(((2S,3R)-2-amino-5-methylhexan-3-yl)amino)-5-fluoro-2-((1-methyl-1H-indazol-5-yl)amino)nicotinamide]",
10 to 50,65 to 130,1000 to 3000,"NC(=O)c1cc(F)c(N[C@@H]2CCCC[C@@H]2N)nc1Nc1cnc(N2CCOCC2)c(F)c1 [Example 006-395, 6-(((1R,2S)-2-aminocyclohexyl)amino)-5-fluoro-2-((5-fluoro-6-morpholinopyridin-3-yl)amino)nicotinamide]",
< 10,65 to 130,1000 to 3000,"CCOc1nccc(Nc2nc(N[C@@H]3CCCC[C@@H]3N)c(F)cc2C(N)=O)c1F [Example 006-433, 6-(((1R,2S)-2-aminocyclohexyl)amino)-2-((2-ethoxy-3-fluoropyridin-4-yl)amino)-5-fluoronicotinamide]",
< 10,< 65,< 1000,"COC[C@@H](Nc1nc(Nc2ccc3ncccc3c2)c(C(N)=O)cc1F)[C@H](C)N [Example 006-468, 6-(((2S,3S)-3-amino-1-methoxybutan-2-yl)amino)-5-fluoro-2-((quinolin-6-yl)amino)nicotinamide]",
10 to 50,65 to 130,1000 to 3000,NC(=O)c1cc(F)c(N[C@@H](C(N)=O)c2ccccc2)nc1Nc1ccc2ncccc2c1 [Example 012-008],
